Measured values published in PubChem BioAssay (NCI).
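Tested at 5 concentrations; 48 h exposure; 96-well plates; endpoints linearly interpolated, else capped at highest concentration. Abbreviation: GI50, concentration required for 50% inhibition of growth. TGI: total growth inhibition.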

How the values were obtained:
Test in all cases: inhibition of tumour cell growth, NCI panel, 48 h
[1] = test system: 786-0 renal
[2] = test system: A498 renal
[3] = test system: A549 NSCLC
[4] = test system: ACHN renal
[5] = test system: BT-549 breast
[6] = test system: CAKI-1 renal
[7] = test system: CCRF-CEM leukemia
[8] = test system: COLO 205 colon
[9] = test system: DU-145 prostate
[10] = test system: EKVX NSCLC
[11] = test system: HCC-2998 colon
[12] = test system: HCT-116 colon
[13] = test system: HCT-15 colon
[14] = test system: HL-60(TB) leukemia
[15] = test system: HOP-62 NSCLC
[16] = test system: HOP-92 NSCLC
[17] = test system: HS 578T breast
[18] = test system: HT29 colon
[19] = test system: K-562 leukemia
[20] = test system: KM12 colon
[21] = test system: LOX IMVI melanoma
[22] = test system: M14 melanoma
[23] = test system: MALME-3M melanoma
[24] = test system: MCF7 breast
[25] = test system: MDA-MB-231 breast
[26] = test system: MDA-MB-435
[27] = test system: MOLT-4 leukemia
[28] = test system: NCI-H226 lung
[29] = test system: NCI-H23 lung
[30] = test system: NCI-H460 lung
[31] = test system: NCI-H522 lung
[32] = test system: NCI/ADR-RES ovarian
[33] = test system: OVCAR-3 ovarian
[34] = test system: OVCAR-4 ovarian
[35] = test system: OVCAR-5 ovarian
[36] = test system: OVCAR-8 ovarian
[37] = test system: PC-3 prostate
[38] = test system: RPMI-8226 leukemia
[39] = test system: RXF 393 renal
[40] = test system: SF-268 CNS
[41] = test system: SF-295 CNS
[42] = test system: SF-539 CNS
[43] = test system: SK-MEL-2 melanoma
[44] = test system: SK-MEL-28 melanoma
[45] = test system: SK-MEL-5 melanoma
[46] = test system: SK-OV-3 ovarian
[47] = test system: SN12C renal
[48] = test system: SNB-19 CNS
[49] = test system: SNB-75 CNS
[50] = test system: SR leukemia
[51] = test system: SW-620 colon
[52] = test system: T-47D breast
[53] = test system: TK-10 renal
[54] = test system: U251 CNS
[55] = test system: UACC-257 melanoma
[56] = test system: UACC-62 melanoma
[57] = test system: UO-31 renal

## N#Cc1c(NC(=O)c2cccs2)[n+]([O-])c2ccccc2[n+]1[O-]
[1]
  GI50: > 100 µM
  TGI: > 100 µM
[2]
  GI50: > 100 µM
  TGI: > 100 µM
[3]
  GI50: > 100 µM
  TGI: > 100 µM
[4]
  GI50: > 100 µM
  TGI: > 100 µM
[5]
  GI50: > 100 µM
  TGI: > 100 µM
[6]
  GI50: > 100 µM
  TGI: > 100 µM
[7]
  GI50: > 100 µM
  TGI: > 100 µM
[8]
  GI50: > 100 µM
  TGI: > 100 µM
[9]
  GI50: > 100 µM
  TGI: > 100 µM
[10]
  GI50: 93.8 µM
  TGI: > 100 µM
[11]
  GI50: > 100 µM
  TGI: > 100 µM
[12]
  GI50: > 100 µM
  TGI: > 100 µM
[13]
  GI50: 64.1 µM
  TGI: > 100 µM
[14]
  GI50: > 100 µM
  TGI: > 100 µM
[15]
  GI50: > 100 µM
  TGI: > 100 µM
[16]
  GI50: 81.7 µM
  TGI: > 100 µM
[17]
  GI50: 95.9 µM
  TGI: > 100 µM
[18]
  GI50: > 100 µM
  TGI: > 100 µM
[19]
  GI50: > 100 µM
  TGI: > 100 µM
[20]
  GI50: > 100 µM
  TGI: > 100 µM
[21]
  GI50: > 100 µM
  TGI: > 100 µM
[22]
  GI50: > 100 µM
  TGI: > 100 µM
[23]
  GI50: 96.2 µM
  TGI: > 100 µM
[24]
  GI50: > 100 µM
  TGI: > 100 µM
[25]
  GI50: > 100 µM
  TGI: > 100 µM
[26]
  GI50: > 100 µM
  TGI: > 100 µM
[27]
  GI50: > 100 µM
  TGI: > 100 µM
[28]
  GI50: 86.4 µM
  TGI: > 100 µM
[29]
  GI50: > 100 µM
  TGI: > 100 µM
[30]
  GI50: > 100 µM
  TGI: > 100 µM
[31]
  GI50: > 100 µM
  TGI: > 100 µM
[32]
  GI50: > 100 µM
  TGI: > 100 µM
[33]
  GI50: > 100 µM
  TGI: > 100 µM
[34]
  GI50: > 100 µM
  TGI: > 100 µM
[35]
  GI50: > 100 µM
  TGI: > 100 µM
[36]
  GI50: 63.4 µM
  TGI: > 100 µM
[37]
  GI50: 64.9 µM
  TGI: > 100 µM
[38]
  GI50: > 100 µM
  TGI: > 100 µM
[39]
  GI50: > 100 µM
  TGI: > 100 µM
[40]
  GI50: > 100 µM
  TGI: > 100 µM
[41]
  GI50: > 100 µM
  TGI: > 100 µM
[42]
  GI50: > 100 µM
  TGI: > 100 µM
[43]
  GI50: > 100 µM
  TGI: > 100 µM
[44]
  GI50: > 100 µM
  TGI: > 100 µM
[45]
  GI50: 39.9 µM
  TGI: > 100 µM
[46]
  GI50: 26 µM
  TGI: > 100 µM
[47]
  GI50: > 100 µM
  TGI: > 100 µM
[48]
  GI50: > 100 µM
  TGI: > 100 µM
[49]
  GI50: 49.5 µM
  TGI: > 100 µM
[50]
  GI50: > 100 µM
  TGI: > 100 µM
[51]
  GI50: > 100 µM
  TGI: > 100 µM
[52]
  GI50: 89.3 µM
  TGI: > 100 µM
[53]
  GI50: > 100 µM
  TGI: > 100 µM
[54]
  GI50: > 100 µM
  TGI: > 100 µM
[55]
  GI50: > 100 µM
  TGI: > 100 µM
[56]
  GI50: > 100 µM
  TGI: > 100 µM
[57]
  GI50: > 100 µM
  TGI: > 100 µM
